These results are taken from US11857513B2, “Selective inhibitor of exon 20 insertion mutant EGFR” (Taiho Pharmaceutical Co., Ltd., priority 2016, dated 2024).

Each structure is given as a SMILES string.

The target in experiment [1] is T1, mutant EGFR in the tumor (NIH3T3-EGFRinsSVD) and wild-type EGFR in the skin (Homo sapiens, UniProt P00533, INS770SVD).
T1 construct: expressed in transfected cells; host or cells: NIH3T3-EGFRinsSVD cells grown as a subcutaneous tumour in nude mice
In words: Phosphorylated-EGFR inhibitory activity in transplanted tumor and mouse skin tissue (Western blot). The experiment is classed as in vivo. To be noted: nude mice, single oral administration. Here is the method: Nude mice were subcutaneously transplanted with NIH3T3-EGFRinsSVD cells into which human mutant EGFR was introduced. […] The collected tissue was subjected to flash-freezing with liquid nitrogen, and stored at −80° C. until use. The tumor and skin tissue were homogenized, with a RIPA buffer (Thermo Fisher Scientific) containing a protease inhibitor cocktail (Thermo Fisher Scientific) added, and proteins within the cells were extracted. The protein concentration was measured with a BCA protein assay kit (Thermo Fisher Scientific), and each sample was adjusted to a protein concentration suitable for measurement of phosphorylated EGFR expression. The proteins were separated by SDS-PAGE, and transferred onto a PVDF membrane. After blocking, Phospho-EGF Receptor (Tyr1068)#2234 (CST), which is a primary antibody, was diluted with a 0.1% TBS-T buffer to 1/1000, and allowed to react at 4° C. overnight. Thereafter, an HRP-labeled anti-rabbit antibody #NA9340V (GE Healthcare), which is a secondary antibody, was diluted to 1/2500 with a 5% skim milk solution adjusted with a 0.1% TBS-T buffer, and allowed to react at room temperature for 40 minutes. After reaction with ECL-Prime (GE Healthcare), detection was performed with an LAS-3000 image analyzer (GE Healthcare).

In another experiment the test system is H1975-EGFRinsSVD cells. In words: Antitumor effect, nude mice subcutaneously transplanted with H1975-EGFRinsSVD cells. The experiment is classed as in vivo, mouse. The note with it: 200 mg/kg orally once daily, 14 days. As for the experimental part: Nude mice were subcutaneously transplanted with NIH3T3-EGFRinsASV cells, NIH3T3-EGFRinsSVD cells, or H1975-EGFRinsSVD cells to which human mutant EGFR was introduced. At the point at which the tumor volume of the tumor engrafted in the nude mice grew to about 100 to 200 mm^3, the mice were allocated into groups, 5 to 6 mice for each group, by stratified randomization such that the average tumor volume between the groups was uniform.
The maximum tolerated dose was determined in accordance with the “Guidelines Involving Experimental Neoplasia Proposals in Mice and Rats” of the National Cancer Institute (NCI), from a humanitarian perspective.
To compare the changes in growth of tumor over time due to administration of the individual test compounds, a relative tumor volume (which hereinafter also referred to as “RTV”) was calculated based on the tumor volume at the time the mice were divided into groups (which is taken as 1 for the tumor growth ratio), using the following formula. For a toxicity index, the body weight was measured over time, and the average body weight change (which hereinafter also referred to as “BWC (%)”) from the day on which the mice were divided into groups was calculated in accordance with the following formula.
RTV=(the tumor volume on the day a tumor volume was measured)/(the tumor volume on the day mice were divided into groups) […]

In the next experiment the target is wild-type EGFR (Homo sapiens, UniProt P00533). In words: Phosphorylated EGFR inhibitory activity in A431 cells (Simple Western). The experiment is classed as cell-based. Also on record: A431 cells, which are human epithelial cancer cell lines overexpressing wild-type EGFR; endogenous in cells; host or cells: A431 (human epithelial cancer cell line). The note with it: 6 hours, Tyr1068. As for the experimental part:
A431 cells, which are human epithelial cancer cell lines overexpressing wild-type EGFR and H1975-EGFRinsSVD cells, which are human pulmonary adenocarcinoma cell lines expressing EGFR with mutation D770_N771insSVD by gene modification, were suspended in respective mediums. These cell suspensions were individually seeded into a 60-mm dish, and incubated in a 5% CO2-containing incubator at 37° C. for 1 day. Compound A was dissolved in DMSO, and diluted with DMSO such that the test compound has a concentration 1000 times higher than the final concentration. The DMSO solution of the test compound was diluted with each medium used for suspending the cells, and each diluted solution was added to respective culture dishes of the cells such that DMS 0 has a final concentration of 0.1%, followed by incubation in a 5% CO2-containing incubator at 37° C. for 6 hours. After incubation, the cells were collected, and stored at −80° C. in the form of pellets until use. […] The concentration of the proteins were measured using a BCA protein assay kit (Thermo Fisher Scientific), and each sample was adjusted so as to have a protein concentration suitable for measurement of phosphorylated EGFR expression. The phosphorylated EGFR expression was measured using a Simple Western (trademark) assay system […]

Sequence of wild-type EGFR (P00533 25-1210): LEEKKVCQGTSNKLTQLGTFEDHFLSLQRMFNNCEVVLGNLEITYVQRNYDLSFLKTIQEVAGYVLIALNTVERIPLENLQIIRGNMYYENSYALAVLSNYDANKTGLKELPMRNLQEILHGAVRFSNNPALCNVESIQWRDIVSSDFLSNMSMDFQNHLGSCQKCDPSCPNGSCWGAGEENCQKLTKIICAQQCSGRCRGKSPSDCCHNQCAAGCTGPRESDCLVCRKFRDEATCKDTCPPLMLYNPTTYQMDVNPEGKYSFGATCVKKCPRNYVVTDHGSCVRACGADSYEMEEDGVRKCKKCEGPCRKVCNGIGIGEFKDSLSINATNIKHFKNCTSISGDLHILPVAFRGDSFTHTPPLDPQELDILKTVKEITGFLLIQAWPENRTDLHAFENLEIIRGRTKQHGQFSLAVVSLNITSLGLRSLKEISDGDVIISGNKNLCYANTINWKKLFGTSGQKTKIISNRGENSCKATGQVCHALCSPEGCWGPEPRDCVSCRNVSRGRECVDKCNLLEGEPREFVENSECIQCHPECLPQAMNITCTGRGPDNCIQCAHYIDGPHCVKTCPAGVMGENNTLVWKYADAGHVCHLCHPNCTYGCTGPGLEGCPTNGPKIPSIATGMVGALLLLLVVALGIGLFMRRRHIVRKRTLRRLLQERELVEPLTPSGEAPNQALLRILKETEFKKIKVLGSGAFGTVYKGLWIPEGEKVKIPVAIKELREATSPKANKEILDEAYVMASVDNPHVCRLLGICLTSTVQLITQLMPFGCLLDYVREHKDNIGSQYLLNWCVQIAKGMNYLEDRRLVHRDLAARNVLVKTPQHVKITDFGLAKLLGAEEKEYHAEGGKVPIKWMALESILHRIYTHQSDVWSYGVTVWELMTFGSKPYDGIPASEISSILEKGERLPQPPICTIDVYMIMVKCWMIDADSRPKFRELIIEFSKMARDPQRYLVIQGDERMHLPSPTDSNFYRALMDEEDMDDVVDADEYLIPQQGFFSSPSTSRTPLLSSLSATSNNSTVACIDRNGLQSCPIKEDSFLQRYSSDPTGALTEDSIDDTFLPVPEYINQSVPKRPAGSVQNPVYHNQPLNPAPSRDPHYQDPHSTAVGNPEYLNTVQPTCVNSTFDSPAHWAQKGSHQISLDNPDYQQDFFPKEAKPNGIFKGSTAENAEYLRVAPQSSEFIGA
T1 sequence (P00533 with tags, fused parts or gaps INS770SVD): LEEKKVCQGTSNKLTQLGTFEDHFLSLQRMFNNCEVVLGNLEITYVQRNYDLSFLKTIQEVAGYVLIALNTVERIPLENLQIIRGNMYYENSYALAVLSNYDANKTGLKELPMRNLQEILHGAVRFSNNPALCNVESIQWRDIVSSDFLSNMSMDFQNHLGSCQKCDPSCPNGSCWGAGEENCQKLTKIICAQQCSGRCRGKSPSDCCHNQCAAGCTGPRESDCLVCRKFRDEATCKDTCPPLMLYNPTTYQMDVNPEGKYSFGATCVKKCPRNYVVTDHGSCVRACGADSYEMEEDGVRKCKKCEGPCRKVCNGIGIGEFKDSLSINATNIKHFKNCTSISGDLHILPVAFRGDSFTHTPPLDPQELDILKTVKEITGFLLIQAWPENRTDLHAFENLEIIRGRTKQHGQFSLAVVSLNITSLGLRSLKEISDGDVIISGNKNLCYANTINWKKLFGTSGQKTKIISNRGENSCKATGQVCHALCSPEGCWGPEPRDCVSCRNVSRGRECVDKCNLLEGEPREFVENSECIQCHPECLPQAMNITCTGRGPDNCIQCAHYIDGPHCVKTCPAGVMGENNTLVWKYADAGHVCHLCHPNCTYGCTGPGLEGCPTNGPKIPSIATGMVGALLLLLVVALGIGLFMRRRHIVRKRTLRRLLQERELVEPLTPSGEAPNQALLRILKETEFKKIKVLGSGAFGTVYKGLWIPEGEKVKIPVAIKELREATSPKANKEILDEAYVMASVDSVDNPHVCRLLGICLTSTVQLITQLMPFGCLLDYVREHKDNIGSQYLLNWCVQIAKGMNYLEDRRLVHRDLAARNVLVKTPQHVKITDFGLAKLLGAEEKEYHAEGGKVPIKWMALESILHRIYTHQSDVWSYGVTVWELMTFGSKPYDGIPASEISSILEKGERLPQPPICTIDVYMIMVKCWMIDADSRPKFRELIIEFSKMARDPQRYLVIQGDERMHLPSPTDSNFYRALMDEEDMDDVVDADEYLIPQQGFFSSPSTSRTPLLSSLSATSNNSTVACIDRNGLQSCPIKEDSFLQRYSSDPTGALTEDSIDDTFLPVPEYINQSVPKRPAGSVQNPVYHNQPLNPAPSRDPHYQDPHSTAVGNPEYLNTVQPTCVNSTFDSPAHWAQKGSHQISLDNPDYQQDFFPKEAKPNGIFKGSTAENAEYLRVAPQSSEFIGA

Turning to `C=CC(=O)N[C@H]1C=C(C)c2c(-c3cnc4ccccc4c3)c3c(N)ncnc3n2C1` [Compound A, (S)—N-(4-amino-6-methyl-5-(quinolin-3-yl)-8,9-dihydropyrimido[5,4-b]indolizin-8-yl)acrylamide], the “phosphorylated-EGFR inhibition in tumor versus skin” value in experiment [1] is “selectively inhibits mutant EGFR in the tumor over wild-type EGFR in the skin”. For the same compound, in the experiment on H1975-EGFRinsSVD cells, the “T/C (%) on the final evaluation day” value is listed as 6%. On wild-type EGFR, this compound returned a concentration for half-maximal inhibition (IC50) of 535 nM.
